These are literature values, as cited in US20260256792A1, “TREATMENT OF CHRONIC SPONTANEOUS URTICARIA BY ADMINISTERING (R)-2-[3-[4-AMINO-3-(2-FLUORO-4-PHENOXY-PHENYL)PYRAZOLO[3,4-D]PYRIMIDIN-1-YL]PIPERIDINE-1-CARBONYL]-4-METHYL-4-[4-(OXETAN-3-YL)PIPERAZIN-1-YL]PENT-2-ENENITRILE” (priority 2023, published 2026).

The subject of this series is fetal development or male fertility. The following applies: preclinical; cited from earlier work.

The structures appear in SMILES notation.

For `CC(C)(C=C(C#N)C(=O)N1CCC[C@@H](n2nc(-c3ccc(Oc4ccccc4)cc3F)c3c(N)ncnc32)C1)N1CCN(C2COC2)CC1` [rilzabrutinib, (R)-2-[3-[4-amino-3-(2-fluoro-4-phenoxy-phenyl)pyrazolo[3,4-d]pyrimidin-1-yl]piperidine-1-carbonyl]-4-methyl-4-[4-(oxetan-3-yl)piperazin-1-yl]pent-2-enenitrile], the reproductive toxicity result was “not expected to harm fetal development or male fertility”.
